Legend:
Test in all cases: post-emergence herbicidal activity, greenhouse
Type in all cases: in vivo
Hemp Sesbania = conditions: Table III
Outline: (§1)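 Each treated pan, grown from seed in topsoil and watered from below, was sprayed at the age of two to three weeks with a solution or suspension of about 0.4% emulsifier by weight carrying the test compound. Injury relative to control pans was recorded roughly two and four weeks afterward.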

Velvetleaf = system: Velvetleaf
Outline: as §1

Cocklebur = system: Cocklebur
Outline: as §1

Rice = conditions: Table III
Outline: as §1

Wild Buckwheat = conditions: Table III
Outline: as §1

Canada Thistle = conditions: Table II, formulated in anhydrous tetrahydrofuran
Outline: as §1

Johnsongrass = conditions: Table II
Outline: as §1

Sugar Beet = conditions: Table III
Outline: as §1

Quackgrass = conditions: Table II
Outline: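 After sowing in soil-filled pans and growing under greenhouse conditions, plants at two to three weeks were sprayed post-emergence with the test compound in a formulation containing approximately 0.4% emulsifier by weight. Observations of plant injury, relative to controls, followed at about two and four weeks.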

[1] = 2 WAT, 1.1 kg/h, formulated in anhydrous tetrahydrofuran
[2] = 2 WAT, 5.6 kg/h, formulated in anhydrous tetrahydrofuran
[3] = 2 WAT, .28 kg/h, formulated in anhydrous tetrahydrofuran
[4] = 4 WAT, 1.1 kg/h, formulated in anhydrous tetrahydrofuran
[5] = 4 WAT, 5.6 kg/h, formulated in anhydrous tetrahydrofuran
[6] = 4 WAT, .28 kg/h, formulated in anhydrous tetrahydrofuran
[7] = Table II, 2 WAT, 5.6 kg/h, formulated in anhydrous tetrahydrofuran
[8] = Table II, 2 WAT, 11.2 kg/h, formulated in anhydrous tetrahydrofuran
[9] = Table II, 4 WAT, 5.6 kg/h, formulated in anhydrous tetrahydrofuran
[10] = Table II, 4 WAT, 11.2 kg/h, formulated in anhydrous tetrahydrofuran
[11] = Table III, 2 WAT, 1.1 kg/h, formulated in anhydrous tetrahydrofuran
[12] = Table III, 2 WAT, 5.6 kg/h, formulated in anhydrous tetrahydrofuran
[13] = Table III, 2 WAT, .28 kg/h, formulated in anhydrous tetrahydrofuran
[14] = Table III, 4 WAT, 1.1 kg/h, formulated in anhydrous tetrahydrofuran
[15] = Table III, 4 WAT, 5.6 kg/h, formulated in anhydrous tetrahydrofuran
[16] = Table III, 4 WAT, .28 kg/h, formulated in anhydrous tetrahydrofuran
[17] = 2 WAT, 11.2 kg/h, formulated in anhydrous tetrahydrofuran
[18] = 4 WAT, 11.2 kg/h, formulated in anhydrous tetrahydrofuran

CCOC(=O)CNCP(=O)(O)O[Si](c1ccccc1)(c1ccccc1)C(C)(C)C [Ex. 7, Glycine, N--((([(1,1-Dimethylethyl)Diphenylsilyl]Oxy)Hydroxyphosphinyl)Methyl)-,Ethyl Ester]
1 (25-49% inhibition): Plant Response Index (R) (Hemp Sesbania; 2 WAT, 5.6 kg/h) | Plant Response Index (R) (Hemp Sesbania; [2]) | Plant Response Index (R) (Hemp Sesbania; 2 WAT, .28 kg/h) | Plant Response Index (R) (Hemp Sesbania; [5]) | Plant Response Index (R) (Hemp Sesbania; 4 WAT, .28 kg/h) | Plant Response Index (C) (Velvetleaf; [7]) | Plant Response Index (C) (Velvetleaf; [8]) | Plant Response Index (C) (Velvetleaf; [10]) | Plant Response Index (C) (Velvetleaf; Table III, 2 WAT, 1.1 kg/h) | Plant Response Index (C) (Velvetleaf; Table III, 2 WAT, .28 kg/h) | Plant Response Index (C) (Velvetleaf; [13]) | Plant Response Index (C) (Velvetleaf; Table III, 4 WAT, 1.1 kg/h) | Plant Response Index (C) (Velvetleaf; Table III, 4 WAT, .28 kg/h) | Plant Response Index (C) (Velvetleaf; [16]) | Plant Response Index (B) (Cocklebur; [8]) | Plant Response Index (B) (Cocklebur; Table III, 2 WAT, .28 kg/h) | Plant Response Index (B) (Cocklebur; Table III, 4 WAT, .28 kg/h) | Plant Response Index (O) (Rice; [1]) | Plant Response Index (O) (Rice; [3]) | Plant Response Index (O) (Rice; [4]) | Plant Response Index (O) (Rice; 4 WAT, .28 kg/h) | Plant Response Index (Q) (Wild Buckwheat; [3]) | Plant Response Index (Q) (Wild Buckwheat; [6]) | Plant Response Index (A) (Canada Thistle; 2 WAT, 5.6 kg/h) | Plant Response Index (A) (Canada Thistle; 2 WAT, 11.2 kg/h) | Plant Response Index (I) (Johnsongrass; [18]) | Plant Response Index (M) (Sugar Beet; 2 WAT, 1.1 kg/h) | Plant Response Index (M) (Sugar Beet; [1]) | Plant Response Index (M) (Sugar Beet; 2 WAT, 5.6 kg/h) | Plant Response Index (M) (Sugar Beet; 2 WAT, .28 kg/h) | Plant Response Index (M) (Sugar Beet; [3]) | Plant Response Index (M) (Sugar Beet; 4 WAT, 1.1 kg/h) | Plant Response Index (M) (Sugar Beet; [4]) | Plant Response Index (M) (Sugar Beet; 4 WAT, .28 kg/h) | Plant Response Index (M) (Sugar Beet; [6]) | Plant Response Index (H) (Quackgrass; 2 WAT, 5.6 kg/h) | Plant Response Index (H) (Quackgrass; [2]) | Plant Response Index (H) (Quackgrass; [17])
2 (50-74% inhibition): Plant Response Index (R) (Hemp Sesbania; [1]) | Plant Response Index (R) (Hemp Sesbania; [4]) | Plant Response Index (R) (Hemp Sesbania; 4 WAT, 5.6 kg/h) | Plant Response Index (C) (Velvetleaf; Table II, 2 WAT, 5.6 kg/h) | Plant Response Index (C) (Velvetleaf; [9]) | Plant Response Index (C) (Velvetleaf; [11]) | Plant Response Index (C) (Velvetleaf; Table III, 2 WAT, 5.6 kg/h) | Plant Response Index (C) (Velvetleaf; [12]) | Plant Response Index (C) (Velvetleaf; [14]) | Plant Response Index (C) (Velvetleaf; Table III, 4 WAT, 5.6 kg/h) | Plant Response Index (B) (Cocklebur; [7]) | Plant Response Index (B) (Cocklebur; Table II, 2 WAT, 11.2 kg/h) | Plant Response Index (B) (Cocklebur; Table III, 2 WAT, 1.1 kg/h) | Plant Response Index (B) (Cocklebur; [11]) | Plant Response Index (B) (Cocklebur; Table III, 2 WAT, 5.6 kg/h) | Plant Response Index (B) (Cocklebur; [13]) | Plant Response Index (B) (Cocklebur; [14]) | Plant Response Index (B) (Cocklebur; [16]) | Plant Response Index (O) (Rice; 2 WAT, 1.1 kg/h) | Plant Response Index (O) (Rice; 2 WAT, 5.6 kg/h) | Plant Response Index (O) (Rice; 2 WAT, .28 kg/h) | Plant Response Index (Q) (Wild Buckwheat; 2 WAT, 1.1 kg/h) | Plant Response Index (Q) (Wild Buckwheat; [1]) | Plant Response Index (Q) (Wild Buckwheat; 2 WAT, 5.6 kg/h) | Plant Response Index (Q) (Wild Buckwheat; 2 WAT, .28 kg/h) | Plant Response Index (Q) (Wild Buckwheat; 4 WAT, 1.1 kg/h) | Plant Response Index (Q) (Wild Buckwheat; [4]) | Plant Response Index (Q) (Wild Buckwheat; 4 WAT, .28 kg/h) | Plant Response Index (I) (Johnsongrass; [5]) | Plant Response Index (M) (Sugar Beet; 4 WAT, 5.6 kg/h) | Plant Response Index (H) (Quackgrass; 2 WAT, 11.2 kg/h) | Plant Response Index (H) (Quackgrass; [5]) | Plant Response Index (H) (Quackgrass; [18])
4 (100% inhibition): Plant Response Index (R) (Hemp Sesbania; 4 WAT, 1.1 kg/h) | Plant Response Index (B) (Cocklebur; Table II, 4 WAT, 5.6 kg/h) | Plant Response Index (B) (Cocklebur; Table II, 4 WAT, 11.2 kg/h) | Plant Response Index (I) (Johnsongrass; 2 WAT, 11.2 kg/h) | Plant Response Index (I) (Johnsongrass; 4 WAT, 5.6 kg/h) | Plant Response Index (I) (Johnsongrass; 4 WAT, 11.2 kg/h) | Plant Response Index (M) (Sugar Beet; [5]) | Plant Response Index (H) (Quackgrass; 4 WAT, 5.6 kg/h)
3 (75-99% inhibition): Plant Response Index (R) (Hemp Sesbania; 2 WAT, 1.1 kg/h) | Plant Response Index (C) (Velvetleaf; Table II, 2 WAT, 11.2 kg/h) | Plant Response Index (C) (Velvetleaf; Table II, 4 WAT, 5.6 kg/h) | Plant Response Index (C) (Velvetleaf; Table II, 4 WAT, 11.2 kg/h) | Plant Response Index (C) (Velvetleaf; [15]) | Plant Response Index (B) (Cocklebur; Table II, 2 WAT, 5.6 kg/h) | Plant Response Index (B) (Cocklebur; [9]) | Plant Response Index (B) (Cocklebur; [10]) | Plant Response Index (B) (Cocklebur; [12]) | Plant Response Index (B) (Cocklebur; Table III, 4 WAT, 1.1 kg/h) | Plant Response Index (B) (Cocklebur; Table III, 4 WAT, 5.6 kg/h) | Plant Response Index (B) (Cocklebur; [15]) | Plant Response Index (O) (Rice; [2]) | Plant Response Index (O) (Rice; 4 WAT, 1.1 kg/h) | Plant Response Index (O) (Rice; 4 WAT, 5.6 kg/h) | Plant Response Index (O) (Rice; [5]) | Plant Response Index (Q) (Wild Buckwheat; [2]) | Plant Response Index (Q) (Wild Buckwheat; 4 WAT, 5.6 kg/h) | Plant Response Index (Q) (Wild Buckwheat; [5]) | Plant Response Index (A) (Canada Thistle; 4 WAT, 5.6 kg/h) | Plant Response Index (A) (Canada Thistle; 4 WAT, 11.2 kg/h) | Plant Response Index (I) (Johnsongrass; 2 WAT, 5.6 kg/h) | Plant Response Index (M) (Sugar Beet; [2]) | Plant Response Index (H) (Quackgrass; 4 WAT, 11.2 kg/h)
0 (0-24% inhibition): Plant Response Index (R) (Hemp Sesbania; [3]) | Plant Response Index (R) (Hemp Sesbania; [6]) | Plant Response Index (O) (Rice; [6]) | Plant Response Index (I) (Johnsongrass; [2]) | Plant Response Index (I) (Johnsongrass; [17])

From patent US4471131A, “Novel silyl esters of N-phosphonomethylglycine” (Monsanto Company, priority 1983, dated 1984)
